Assays:
[1] = molecular target: murine STING protein (amino acids 154-378) (Mus musculus (Mouse), UniProt Q3TBT3); assay: Murine STING [3H] 2′,3′-cGAMP scintillation proximity competition binding assay; settings: read-out: Murine Binding IC50
[2] = molecular target: AQ variant of truncated human STING protein, amino acids 155-379 (Homo sapiens (Human), UniProt Q86WV6, G230A/H232R/R293Q); assay: Human AQ STING [3H] 2′,3′-cGAMP scintillation proximity competition binding assay; settings: read-out: Human AQ Binding IC50
Description: (§1) A human STING [^3H] 2′,3′-cGAMP scintillation proximity competition binding assay was utilized to detect binding of compounds to STING protein. […] The protein encoding plasmid contained a HIS tag, followed by an Avi tag and then a SUMO tag, which were followed by the STING coding sequence within the pET-28a (+) vector. The plasmid was transfected into a BL21 (DE3)/BirA E. coli co-expression strain. Protein was purified from the bacterial lysate using a cobalt-affinity column. The purified protein was dialyzed against PBS and then 20% glycerol was added prior to storage at −80° C.
(§2) 2′,3′-cGAMP in assay buffer (50 mM Tris pH 7.5, 100 mM NaCl, 0.1% Fatty Acid Free BSA). Test compounds (2.5 μL) were added to the plate first followed by a 25 μL mixture of STING protein, streptavidin PVT SPA beads (Perkin Elmer) and 10 μL [^3H] 2′,3′-cGAMP. Plates were incubated at room temperature for 18 hrs and read on a Wallac MicroBeta TriLux (Perkin Elmer).

[3] = molecular target: wild-type (WT) truncated human STING protein, amino acids 155-379 (Homo sapiens (Human), UniProt Q86WV6, H232R); assay: Human WT STING [3H] 2′,3′-cGAMP scintillation proximity competition binding assay; settings: read-out: Human WT Binding IC50
Description: as §1, §2

AQ variant of truncated human STING protein, amino acids 155-379, sequence (Q86WV6 155-379 G230A/H232R/R293Q): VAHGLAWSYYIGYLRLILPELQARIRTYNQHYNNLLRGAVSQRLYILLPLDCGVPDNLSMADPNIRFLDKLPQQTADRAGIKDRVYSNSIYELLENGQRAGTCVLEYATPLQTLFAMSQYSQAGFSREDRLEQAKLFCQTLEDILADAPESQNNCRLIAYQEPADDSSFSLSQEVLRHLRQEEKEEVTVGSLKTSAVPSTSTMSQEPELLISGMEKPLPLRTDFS
murine STING protein (amino acids 154-378), sequence (Q3TBT3 154-378): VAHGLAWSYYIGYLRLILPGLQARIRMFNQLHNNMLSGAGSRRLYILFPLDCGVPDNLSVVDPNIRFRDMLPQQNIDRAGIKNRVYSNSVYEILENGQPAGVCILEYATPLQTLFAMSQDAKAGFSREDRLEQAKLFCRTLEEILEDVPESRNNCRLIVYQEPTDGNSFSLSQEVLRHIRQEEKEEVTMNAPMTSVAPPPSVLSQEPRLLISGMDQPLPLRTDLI
wild-type (WT) truncated human STING protein, amino acids 155-379, sequence (Q86WV6 155-379 H232R): as the sequence (Q86WV6 155-379 G230A/H232R/R293Q) above, with A76G, Q139R counted along it

SMILES | IC50 [1] [nM] | IC50 [2] [nM] | IC50 [3] [nM]
Nc1nc2c(ncn2[C@@H]2O[C@@H]3COP(=O)(S)OCCn4c(nc5cnc(C6CC6)nc54)COP(=O)(S)O[C@@H]2[C@@H]3F)c(=O)[nH]1 (single isomer, unassigned) [Example 12C] | < 1000 |  | 
Nc1nc2c(ncn2[C@@H]2O[C@@H]3COP(=O)(S)OCCn4c(nc5cncnc54)COP(=O)(O)O[C@@H]2[C@@H]3F)c(=O)[nH]1 (single isomer, unassigned) [Example 6B] | < 1000 |  | 
Nc1nc2c(ncn2[C@@H]2O[C@@H]3COP(=O)(S)OCCn4c(nc5c(=O)[nH]cnc54)COP(=O)(S)O[C@@H]2[C@@H]3F)c(=O)[nH]1 (single isomer, unassigned) [Example 3C] | < 1000 |  | 
Nc1nc2c(ncn2[C@@H]2O[C@@H]3COP(=O)(S)OCCn4nc(-c5cncs5)nc4COP(=O)(S)O[C@@H]2[C@@H]3F)c(=O)[nH]1 (single isomer, unassigned) [Example 16A] | < 1000 |  | 
Nc1nc2ncn([C@@H]3O[C@@H]4COP(=O)(S)OCCn5c(nc6cc(Cl)cnc65)COP(=O)(S)O[C@@H]3[C@@H]4F)c2c(=O)[nH]1 (single isomer, unassigned) [Example 13A] | < 1000 |  | 
Nc1nc2c(ncn2[C@@H]2O[C@@H]3COP(=O)(O)OCCCn4c(nc5cncnc54)COP(=O)(O)O[C@@H]2[C@@H]3O)c(=O)[nH]1 [Example 2, (1R,22R,24R,25R)-24-(2-Amino-6-oxo-6,9-dihydro-1H-purin-9-yl)-3,19,25-trihydroxy-2,4,18,20,23-pentaoxa-710,122,14-tetraaza-3lambda5,19lambda5-diphosphatetracyclo[20.2.1.06,14.08,13]pentacosa-6,8(13),9,11-tetraene-3,19-dione] |  | 10000 to 100000 | 10000 to 100000
C[C@H]1Cn2c(nc3cncnc32)COP(=O)(S)O[C@@H]2[C@H](F)[C@@H](COP(=O)(S)O1)O[C@H]2n1cnc2c(=O)[nH]c(N)nc21 (single isomer, unassigned) [Example 33C] |  |  | 10000 to 100000
Nc1nc2c(ncn2[C@@H]2O[C@@H]3COP(=O)(S)OCCn4c(nc5cc(Cl)cnc54)COP(=O)(S)O[C@@H]2[C@@H]3F)c(=O)[nH]1 (single isomer, unassigned) [Example 14A] | < 1000 |  | 
Nc1nc2c(ncn2[C@@H]2O[C@@H]3COP(=O)(S)OCCn4c(nc5cc(Cl)cnc54)COP(=O)(S)O[C@@H]2[C@@H]3F)c(=O)[nH]1 (single isomer, unassigned) [Example 14D] | < 1000 |  | 
Nc1nc2c(ncn2[C@@H]2O[C@@H]3COP(=O)(S)OCCn4c(nc5cc(Cl)cnc54)COP(=O)(S)O[C@@H]2[C@@H]3F)c(=O)[nH]1 (single isomer, unassigned) [Example 14C] | < 1000 |  | 
Nc1nc2c(ncn2[C@@H]2O[C@@H]3COP(=O)(O)OCCn4c(nc5cncnc54)COP(=O)(S)O[C@@H]2[C@@H]3F)c(=O)[nH]1 (single isomer, unassigned) [Example 5B] | 1000 to 9990 |  | 
Nc1nc2c(ncn2[C@@H]2O[C@@H]3COP(=O)(S)OCCn4c(nc5cncnc54)COP(=O)(O)O[C@@H]2[C@@H]3F)c(=O)[nH]1 (single isomer, unassigned) [Example 6A] | < 1000 |  | 
Nc1nc2c(ncn2[C@@H]2O[C@@H]3COP(=S)(S)OCCn4c(nc5cncnc54)COP(=O)(S)O[C@@H]2[C@@H]3F)c(=O)[nH]1 (stereo partly drawn) [Example 39, (1S,21R,23R,24R)-23-(2-Amino-6-oxo-6,9-dihydro-1H-purin-9-yl)-24-fluoro-3,18-disulfanyl-18-sulfanylidene-2,4,17,19,22-pentaoxa-7,10,12,14-tetraaza-3lambda5,18lambda5-diphosphatetracyclo[19.2.1.06,14.08,13]tetracosa-6,8(13),9,11-tetraen-3-one] | < 1000 |  | 
Nc1nc2c(ncn2[C@@H]2O[C@@H]3COP(=O)(S)OCCn4c(nc5cncnc54)COP(=O)(S)O[C@@H]2[C@H]3F)c(=O)[nH]1 (single isomer, unassigned) [Example 25B] |  |  | 10000 to 100000
Nc1nc2c(ncn2[C@@H]2O[C@@H]3COP(=O)(S)OCCn4c(nc5cncnc54)COP(=O)(S)O[C@@H]2[C@H]3F)c(=O)[nH]1 (single isomer, unassigned) [Example 25D] |  | < 1000 | < 1000
Nc1nc2c(ncn2[C@@H]2O[C@@H]3COP(=O)(S)OCCn4c(nc5c(=O)[nH]cnc54)COP(=O)(S)O[C@@H]2[C@@H]3F)c(=O)[nH]1 (single isomer, unassigned) [Example 3D] | 1000 to 9990 |  | 
Nc1nc2c(ncn2[C@@H]2O[C@@H]3COP(=O)(S)OCCn4c(nc5c(=O)[nH]cnc54)COP(=O)(S)O[C@@H]2[C@@H]3F)c(=O)[nH]1 (single isomer, unassigned) [Example 3B] | 1000 to 9990 |  | 
Nc1nc2c(ncn2[C@@H]2O[C@@H]3COP(=O)(O)OCCn4c(nc5cncnc54)COP(=O)(S)O[C@@H]2[C@@H]3F)c(=O)[nH]1 (single isomer, unassigned) [Example 5A] | < 1000 |  | 
Nc1nc2c(ncn2[C@@H]2O[C@@H]3COP(=O)(S)OCCn4nc(-c5cncs5)nc4COP(=O)(S)O[C@@H]2[C@@H]3F)c(=O)[nH]1 (single isomer, unassigned) [Example 16C] | < 1000 |  | 
Nc1nc2c(ncn2[C@@H]2O[C@@H]3COP(=O)(S)OCCn4c(nc5cncnc54)COP(=O)(S)O[C@@H]2[C@@H]3O)c(=O)[nH]1 (single isomer, unassigned) [Example 15D] | < 1000 |  | 
Nc1nc2c(ncn2[C@@H]2O[C@@H]3COP(=O)(S)OCCn4c(nc5cncnc54)COP(=O)(S)O[C@@H]2[C@@H]3O)c(=O)[nH]1 (mixture of isomers) [Example 15A, (1R,21R,23R,24R)-23-(2-Amino-6-oxo-6,9-dihydro-1H-purin-9-yl)-24-hydroxy-3,18-disulfanyl-2,4,17,19,22-pentaoxa-7,10,12,14-tetraaza-3lambda5,18lambda5-diphosphatetracyclo[19.2.1.06,14.08,13]tetracosa-6,8,10,12-tetraene-3,18-dione] | < 1000 |  | 
Nc1nc2c(ncn2[C@@H]2O[C@@H]3COP(=O)(S)OCCn4c(nc5cncnc54)COP(=O)(S)O[C@@H]2[C@@H]3F)c(=O)[nH]1 (single isomer, unassigned) [Example 1A] |  | < 1000 | 
Nc1nc2c(ncn2[C@@H]2O[C@@H]3COP(=O)(S)OCCn4c(nc5cncnc54)COP(=O)(S)O[C@@H]2[C@@H]3O)c(=O)[nH]1 (single isomer, unassigned) [Example 15C] | < 1000 |  | 
Nc1nc2c(ncn2[C@@H]2O[C@@H]3COP(=O)(S)OCCn4c(nc5cnc(C6CC6)nc54)COP(=O)(S)O[C@@H]2[C@@H]3F)c(=O)[nH]1 (single isomer, unassigned) [Example 12D] | 1000 to 9990 |  | 

Further lines, with some results ahead:

IC50 [1] [nM] | SMILES | IC50 [2] [nM] | IC50 [3] [nM]
10000 to 100000 | C[C@H]1COP(=O)(S)OC[C@H]2O[C@@H](n3cnc4c(=O)[nH]c(N)nc43)[C@H](OP(=O)(S)OCc3nc4cncnc4n31)[C@@H]2F (single isomer, unassigned) [Example 20D] |  | 
< 1000 | Nc1nc2c(ncn2[C@@H]2O[C@@H]3COP(=O)(S)OCCn4nc(-c5ccncc5)nc4COP(=O)(S)O[C@@H]2[C@@H]3F)c(=O)[nH]1 (single isomer, unassigned) [Example 34C] |  | 
10000 to 100000 | Nc1nc2c(nc3n2CCOP(=O)(S)OC[C@H]2O[C@@H](n4cnc5c(N)ncnc54)[C@H](OP(=O)(S)OC3)[C@@H]2F)c(=O)[nH]1 (single isomer, unassigned) [Example 23D] |  | 
< 1000 | Nc1nc2c(nnn2[C@@H]2O[C@@H]3COP(=O)(S)OCCn4c(nc5cncnc54)COP(=O)(S)O[C@@H]2[C@@H]3F)c(=O)[nH]1 (single isomer, unassigned) [Example 24D] |  | 
1000 to 9990 | Nc1nc2c(ncn2[C@@H]2O[C@@H]3COP(=O)(S)OCCn4nc(-c5ccncc5)nc4COP(=O)(S)O[C@@H]2[C@@H]3F)c(=O)[nH]1 (single isomer, unassigned) [Example 34D] |  | 
1000 to 9990 | Nc1nc2c(ncn2[C@@H]2O[C@@H]3COP(=O)(S)OCCn4nc(-c5ccncc5)nc4COP(=O)(S)O[C@@H]2[C@@H]3F)c(=O)[nH]1 (single isomer, unassigned) [Example 34B] |  | 
< 1000 | Nc1nc2c(ncn2[C@@H]2O[C@@H]3COP(=O)(S)OCCn4c(nc5cnccc54)COP(=O)(S)O[C@@H]2[C@@H]3F)c(=O)[nH]1 (single isomer, unassigned) [Example 17C] |  | 
< 1000 | Nc1nc2c(nnn2[C@@H]2O[C@@H]3COP(=O)(S)OCCn4c(nc5cncnc54)COP(=O)(S)O[C@@H]2[C@@H]3F)c(=O)[nH]1 (single isomer, unassigned) [Example 24C] |  | 
< 1000 | Nc1nc2c(ncn2[C@@H]2O[C@@H]3COP(=O)(S)OCCn4nc(-c5cncs5)nc4COP(=O)(S)O[C@@H]2[C@@H]3F)c(=O)[nH]1 (single isomer, unassigned) [Example 16D] |  | 
< 1000 | Nc1nc2c(nnn2[C@@H]2O[C@@H]3COP(=O)(S)OCCn4c(nc5cncnc54)COP(=O)(S)O[C@@H]2[C@@H]3F)c(=O)[nH]1 (single isomer, unassigned) [Example 24A] |  | 
10000 to 100000 | Nc1nc2c(nnn2[C@@H]2O[C@@H]3COP(=O)(S)OCCn4c(nc5cncnc54)COP(=O)(S)O[C@@H]2[C@@H]3F)c(=O)[nH]1 (single isomer, unassigned) [Example 24B] |  | 

— patent US11161864B2, “Sting agonists” (Venenum Biodesign, LLC, priority 2018, dated 2021)
